# Reference: ChEMBL document CHEMBL1201862, “PubChem BioAssay data set” (2004)
# The source made the active and inactive calls.
# Columns and labels:
# [1] = target: G-protein coupled receptor 183 (Homo sapiens, UniProt P32249); assay: SAR confirmation of small molecule antagonists of the EBI2 receptor via a luminescent beta-arrestin assa.; assay type: functional
# [2] = target: NAD-dependent protein deacylase sirtuin-5, mitochondrial (Homo sapiens, UniProt Q9NXA8); assay: sirtuin-5 deacylation blockers, concentration series – biochemical, fluorescence imaging, cherry-pick, set 5, dose response (AID 720591);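 note: desuccinylation of succinyl peptide AMC substrate read as fluorescence after trypsin release; potency of inhibitors that lower fluorescence and may act on trypsin instead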
# NAD-dependent protein deacylase sirtuin-5, mitochondrial, sequence (Q9NXA8 whole entry): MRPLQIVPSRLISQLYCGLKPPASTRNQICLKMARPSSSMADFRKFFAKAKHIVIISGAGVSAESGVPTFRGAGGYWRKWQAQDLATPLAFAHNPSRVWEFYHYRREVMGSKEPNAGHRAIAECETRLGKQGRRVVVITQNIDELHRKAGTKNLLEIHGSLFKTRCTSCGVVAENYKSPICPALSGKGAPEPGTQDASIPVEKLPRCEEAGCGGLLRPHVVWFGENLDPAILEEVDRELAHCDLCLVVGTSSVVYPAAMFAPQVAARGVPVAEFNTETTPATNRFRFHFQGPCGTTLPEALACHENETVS
# [3] = IC50 of Artemis nuclease activity blockers – biochemical, fluorescence intensity, dose response (AID 720701); assay type: functional;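 note: Artemis endonuclease enzyme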
# [4] = target: Heat shock protein HSP 90-alpha (Homo sapiens, UniProt P07900); assay type: functional, organism-based
# [5] = target: T1, Replicative DNA helicase DnaB (Mycobacterium tuberculosis, UniProt P9WMR3); assay: DnaB intein splicing inhibitors, dose response, biochemical, cell-free fluorescence (AID 449749); assay type: functional
# T1 sequence (P9WMR3 whole entry): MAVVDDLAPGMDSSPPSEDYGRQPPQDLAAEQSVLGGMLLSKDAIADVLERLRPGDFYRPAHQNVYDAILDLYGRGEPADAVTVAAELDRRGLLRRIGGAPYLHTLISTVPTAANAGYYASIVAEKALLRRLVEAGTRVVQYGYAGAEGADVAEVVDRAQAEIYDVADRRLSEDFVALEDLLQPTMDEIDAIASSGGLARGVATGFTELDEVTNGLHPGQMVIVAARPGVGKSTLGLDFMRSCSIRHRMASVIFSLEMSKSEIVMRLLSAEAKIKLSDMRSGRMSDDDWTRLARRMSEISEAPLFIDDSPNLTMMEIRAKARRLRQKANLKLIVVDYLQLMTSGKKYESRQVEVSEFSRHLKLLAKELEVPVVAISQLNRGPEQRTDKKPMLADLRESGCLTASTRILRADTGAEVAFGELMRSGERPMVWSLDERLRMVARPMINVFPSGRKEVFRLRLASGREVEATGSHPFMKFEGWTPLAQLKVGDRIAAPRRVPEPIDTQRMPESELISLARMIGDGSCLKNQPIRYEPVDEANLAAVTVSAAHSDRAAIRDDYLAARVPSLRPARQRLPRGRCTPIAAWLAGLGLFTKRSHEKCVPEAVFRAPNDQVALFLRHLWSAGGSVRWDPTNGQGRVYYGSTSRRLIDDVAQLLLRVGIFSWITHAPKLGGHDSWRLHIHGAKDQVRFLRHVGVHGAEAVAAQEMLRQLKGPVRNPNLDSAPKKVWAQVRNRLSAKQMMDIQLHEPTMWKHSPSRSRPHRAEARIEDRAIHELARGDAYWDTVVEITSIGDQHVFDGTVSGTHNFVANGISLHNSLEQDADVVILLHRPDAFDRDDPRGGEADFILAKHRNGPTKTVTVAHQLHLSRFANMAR
# [6] = target: T2, Apoptotic protease-activating factor 1 (Homo sapiens, UniProt O14727); assay type: functional
# T2 sequence (O14727 whole entry): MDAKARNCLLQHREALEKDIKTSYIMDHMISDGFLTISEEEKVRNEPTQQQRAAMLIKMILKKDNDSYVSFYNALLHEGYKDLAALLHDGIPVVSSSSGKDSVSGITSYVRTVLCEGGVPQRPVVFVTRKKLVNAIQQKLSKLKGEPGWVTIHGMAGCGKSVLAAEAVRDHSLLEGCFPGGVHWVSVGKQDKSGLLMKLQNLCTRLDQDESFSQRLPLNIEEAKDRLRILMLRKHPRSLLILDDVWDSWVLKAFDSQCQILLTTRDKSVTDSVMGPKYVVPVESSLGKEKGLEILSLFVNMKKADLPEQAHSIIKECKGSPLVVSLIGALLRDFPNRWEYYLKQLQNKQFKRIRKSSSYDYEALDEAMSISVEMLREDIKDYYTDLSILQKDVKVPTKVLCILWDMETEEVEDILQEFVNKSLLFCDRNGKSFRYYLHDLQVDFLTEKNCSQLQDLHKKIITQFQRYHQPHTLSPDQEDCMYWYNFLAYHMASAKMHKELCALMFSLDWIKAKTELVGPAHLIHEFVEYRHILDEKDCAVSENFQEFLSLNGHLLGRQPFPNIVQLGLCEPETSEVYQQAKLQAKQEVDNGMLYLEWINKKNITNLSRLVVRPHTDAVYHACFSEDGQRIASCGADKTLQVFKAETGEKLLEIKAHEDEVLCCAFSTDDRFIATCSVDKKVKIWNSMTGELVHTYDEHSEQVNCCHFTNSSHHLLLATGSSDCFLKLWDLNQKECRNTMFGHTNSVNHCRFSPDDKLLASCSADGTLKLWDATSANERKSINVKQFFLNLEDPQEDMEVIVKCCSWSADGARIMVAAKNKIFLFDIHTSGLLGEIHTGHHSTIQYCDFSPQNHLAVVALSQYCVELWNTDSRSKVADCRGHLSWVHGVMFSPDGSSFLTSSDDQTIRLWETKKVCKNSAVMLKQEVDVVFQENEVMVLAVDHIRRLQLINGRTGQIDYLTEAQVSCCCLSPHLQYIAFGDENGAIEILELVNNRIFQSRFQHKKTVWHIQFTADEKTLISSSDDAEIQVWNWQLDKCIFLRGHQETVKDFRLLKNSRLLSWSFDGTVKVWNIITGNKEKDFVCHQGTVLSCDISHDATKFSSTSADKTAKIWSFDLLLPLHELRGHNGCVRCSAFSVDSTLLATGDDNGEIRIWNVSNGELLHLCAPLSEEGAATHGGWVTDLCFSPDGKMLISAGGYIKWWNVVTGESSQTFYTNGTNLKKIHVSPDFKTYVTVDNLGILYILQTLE
# [7] = target: T3, Protein RecA (Mycobacterium tuberculosis, UniProt P9WHJ3); assay: Fluorescence Cell-Free Homogeneous Dose Retest to Identify Inhibitors of RecA-Intein Splicing Activity. [Related pubchem assays (depositor defined):AID2097, AID2223, AID489010, AID492950]; assay type: functional
# T3 sequence (P9WHJ3 whole entry): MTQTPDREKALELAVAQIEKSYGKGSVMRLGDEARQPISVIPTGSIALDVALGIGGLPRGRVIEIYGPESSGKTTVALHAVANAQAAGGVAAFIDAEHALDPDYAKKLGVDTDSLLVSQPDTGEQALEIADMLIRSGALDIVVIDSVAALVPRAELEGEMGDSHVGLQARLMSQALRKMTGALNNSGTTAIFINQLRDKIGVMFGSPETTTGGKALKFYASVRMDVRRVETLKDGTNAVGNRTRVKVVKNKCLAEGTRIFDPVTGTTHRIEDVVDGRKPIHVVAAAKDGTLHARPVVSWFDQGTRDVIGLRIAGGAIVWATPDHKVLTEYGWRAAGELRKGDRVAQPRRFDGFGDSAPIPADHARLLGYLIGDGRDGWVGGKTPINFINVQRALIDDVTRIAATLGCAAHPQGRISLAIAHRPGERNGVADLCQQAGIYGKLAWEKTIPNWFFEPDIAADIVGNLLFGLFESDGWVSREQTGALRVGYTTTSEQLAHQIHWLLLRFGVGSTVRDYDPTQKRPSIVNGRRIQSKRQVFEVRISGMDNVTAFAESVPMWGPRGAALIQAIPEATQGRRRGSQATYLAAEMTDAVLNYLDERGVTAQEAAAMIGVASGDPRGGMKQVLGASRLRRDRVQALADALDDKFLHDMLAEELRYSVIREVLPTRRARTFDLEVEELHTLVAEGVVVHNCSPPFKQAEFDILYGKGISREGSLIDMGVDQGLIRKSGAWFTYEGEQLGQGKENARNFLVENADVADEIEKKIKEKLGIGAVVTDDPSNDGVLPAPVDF
# [8] = viability loss in Vero cells – cytotoxicity control for Vif-APOBEC3G degradation inhibitor project, dose response (AID 1117358); assay type: functional; conditions: Vero
# [9] = target: T4, Estrogen receptor beta (Homo sapiens, UniProt Q92731); assay: blockers of SRC-3 recruitment to ERβ – biochemical, ELISA, streptavidin-HRP readout, orthogonal assay, confirmation (AID 1060)
# T4 sequence (Q92731 whole entry): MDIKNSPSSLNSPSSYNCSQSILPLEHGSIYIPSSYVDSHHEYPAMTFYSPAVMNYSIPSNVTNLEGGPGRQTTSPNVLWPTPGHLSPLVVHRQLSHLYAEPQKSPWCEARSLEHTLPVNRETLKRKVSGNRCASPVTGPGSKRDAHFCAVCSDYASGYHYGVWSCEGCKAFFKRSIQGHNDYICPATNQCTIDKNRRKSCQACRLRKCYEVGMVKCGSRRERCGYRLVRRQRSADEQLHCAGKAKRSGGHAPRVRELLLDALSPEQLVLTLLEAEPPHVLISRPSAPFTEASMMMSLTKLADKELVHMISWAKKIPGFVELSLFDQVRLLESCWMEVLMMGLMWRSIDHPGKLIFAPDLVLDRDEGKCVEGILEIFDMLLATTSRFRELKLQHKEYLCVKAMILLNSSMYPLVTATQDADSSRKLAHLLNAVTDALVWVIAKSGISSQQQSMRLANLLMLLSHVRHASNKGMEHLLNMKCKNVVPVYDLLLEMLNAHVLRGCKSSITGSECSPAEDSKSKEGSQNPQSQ
# [10] = target: T4, Estrogen receptor beta
# [11] = target: T5, Phospholipase D1 (Homo sapiens, UniProt Q13393); assay: PLD1 Cellular Concentration Response Study.; assay type: functional
# T5 sequence (Q13393 whole entry): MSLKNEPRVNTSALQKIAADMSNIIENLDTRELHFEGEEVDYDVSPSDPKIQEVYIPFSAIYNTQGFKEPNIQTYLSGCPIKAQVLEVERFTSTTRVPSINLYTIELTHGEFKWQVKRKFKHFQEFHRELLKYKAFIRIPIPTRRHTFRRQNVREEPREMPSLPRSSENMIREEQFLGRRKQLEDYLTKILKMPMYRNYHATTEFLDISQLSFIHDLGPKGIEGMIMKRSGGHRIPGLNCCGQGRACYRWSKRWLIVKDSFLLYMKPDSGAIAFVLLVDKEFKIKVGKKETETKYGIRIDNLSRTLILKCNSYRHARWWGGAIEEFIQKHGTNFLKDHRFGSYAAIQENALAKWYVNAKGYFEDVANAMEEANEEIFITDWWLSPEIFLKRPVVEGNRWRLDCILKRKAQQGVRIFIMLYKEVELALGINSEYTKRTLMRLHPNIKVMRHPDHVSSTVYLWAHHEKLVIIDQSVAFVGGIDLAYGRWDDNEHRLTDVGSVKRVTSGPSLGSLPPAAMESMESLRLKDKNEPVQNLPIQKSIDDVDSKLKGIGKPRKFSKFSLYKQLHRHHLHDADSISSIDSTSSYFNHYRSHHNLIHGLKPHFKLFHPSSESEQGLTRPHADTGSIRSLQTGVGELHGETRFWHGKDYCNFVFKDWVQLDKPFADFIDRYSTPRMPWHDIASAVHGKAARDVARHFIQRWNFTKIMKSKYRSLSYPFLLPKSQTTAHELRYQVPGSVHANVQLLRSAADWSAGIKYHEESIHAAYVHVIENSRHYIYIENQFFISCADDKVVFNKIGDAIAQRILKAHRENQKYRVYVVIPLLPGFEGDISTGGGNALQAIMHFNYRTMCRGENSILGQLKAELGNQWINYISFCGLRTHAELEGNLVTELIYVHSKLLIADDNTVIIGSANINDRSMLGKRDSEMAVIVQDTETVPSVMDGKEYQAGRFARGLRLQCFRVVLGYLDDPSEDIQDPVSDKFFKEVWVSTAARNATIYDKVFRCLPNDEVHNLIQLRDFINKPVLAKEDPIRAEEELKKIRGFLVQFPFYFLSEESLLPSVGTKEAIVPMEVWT
# [12] = target: Phospholipase D2 (Homo sapiens, UniProt O14939); assay: PLD2 Cellular Concentration Response Study.; assay type: functional
# Phospholipase D2, sequence (O14939 whole entry, canonical isoform): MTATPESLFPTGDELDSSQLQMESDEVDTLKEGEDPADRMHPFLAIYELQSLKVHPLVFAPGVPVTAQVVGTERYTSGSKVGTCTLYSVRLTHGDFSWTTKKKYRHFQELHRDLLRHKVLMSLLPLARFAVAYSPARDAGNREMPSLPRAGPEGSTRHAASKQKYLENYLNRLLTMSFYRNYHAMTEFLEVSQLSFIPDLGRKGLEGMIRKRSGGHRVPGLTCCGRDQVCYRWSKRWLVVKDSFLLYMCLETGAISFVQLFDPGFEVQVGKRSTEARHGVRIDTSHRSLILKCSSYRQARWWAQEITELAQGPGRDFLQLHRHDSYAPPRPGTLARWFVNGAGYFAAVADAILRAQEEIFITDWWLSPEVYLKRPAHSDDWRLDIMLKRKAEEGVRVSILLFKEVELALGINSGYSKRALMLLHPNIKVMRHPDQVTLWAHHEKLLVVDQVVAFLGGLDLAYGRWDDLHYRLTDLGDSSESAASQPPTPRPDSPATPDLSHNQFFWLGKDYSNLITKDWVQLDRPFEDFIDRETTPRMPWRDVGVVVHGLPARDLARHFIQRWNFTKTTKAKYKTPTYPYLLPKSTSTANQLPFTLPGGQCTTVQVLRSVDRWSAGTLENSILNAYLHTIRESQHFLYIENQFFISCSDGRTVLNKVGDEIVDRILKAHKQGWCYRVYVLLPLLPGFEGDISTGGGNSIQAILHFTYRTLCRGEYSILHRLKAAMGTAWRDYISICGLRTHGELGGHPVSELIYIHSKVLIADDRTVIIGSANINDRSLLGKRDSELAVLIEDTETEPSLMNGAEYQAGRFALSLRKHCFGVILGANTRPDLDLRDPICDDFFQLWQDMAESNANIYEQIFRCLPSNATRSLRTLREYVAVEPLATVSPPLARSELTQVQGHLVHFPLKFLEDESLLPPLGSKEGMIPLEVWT
# [13] = target: T6, Low molecular weight phosphotyrosine protein phosphatase (Homo sapiens, UniProt P24666); assay: inhibition of human LMPTP enzyme activity – biochemical, absorbance, pNPP substrate, LMPTP-A isoform, set 2, orthogonal assay, dose response (AID 743308); assay type: functional
# T6 sequence (P24666 whole entry): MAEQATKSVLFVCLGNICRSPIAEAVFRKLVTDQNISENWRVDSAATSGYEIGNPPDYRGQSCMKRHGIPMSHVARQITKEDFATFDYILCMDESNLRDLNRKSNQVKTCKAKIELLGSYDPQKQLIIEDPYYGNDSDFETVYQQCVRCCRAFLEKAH
# [14] = target: T6, Low molecular weight phosphotyrosine protein phosphatase; assay: inhibition of LMPTP-A enzymatic activity – biochemical, OMFP substrate, fluorescence intensity, set 2, dose response (AID 743307); assay type: functional
# [15] = target: T7, Protein Tat (Human immunodeficiency virus type 1 group M subtype B (isolate HXB2)(HIV-1), UniProt P04608); assay type: functional;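 note: tat binding to TAR RNA read out by fluorescence polarization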
# T7 sequence (P04608 whole entry): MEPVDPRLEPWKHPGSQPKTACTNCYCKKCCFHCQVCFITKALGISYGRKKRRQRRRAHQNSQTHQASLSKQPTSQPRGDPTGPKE
# [16] = HIV-1 Vif–A3G interaction blockers – biochemical, TR-FRET, GST-Vif 1-94, biotin-A3G peptide, dose response retest, primary screen (AID 1117319); assay type: functional;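 note: TR-FRET signal of purified GST-Vif binding a biotinylated A3G peptide; inhibitors lower the FRET signal by blocking Vif and A3G binding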
# [17] = target: RNA-editing ligase 1, mitochondrial (Trypanosoma brucei brucei, UniProt P86926); assay: inhibition of trypanosome RNA editing ligase – biochemical, fluorescence, Trypanosoma brucei, dose response (AID 1117295); assay type: functional
# RNA-editing ligase 1, mitochondrial, sequence (P86926 whole entry): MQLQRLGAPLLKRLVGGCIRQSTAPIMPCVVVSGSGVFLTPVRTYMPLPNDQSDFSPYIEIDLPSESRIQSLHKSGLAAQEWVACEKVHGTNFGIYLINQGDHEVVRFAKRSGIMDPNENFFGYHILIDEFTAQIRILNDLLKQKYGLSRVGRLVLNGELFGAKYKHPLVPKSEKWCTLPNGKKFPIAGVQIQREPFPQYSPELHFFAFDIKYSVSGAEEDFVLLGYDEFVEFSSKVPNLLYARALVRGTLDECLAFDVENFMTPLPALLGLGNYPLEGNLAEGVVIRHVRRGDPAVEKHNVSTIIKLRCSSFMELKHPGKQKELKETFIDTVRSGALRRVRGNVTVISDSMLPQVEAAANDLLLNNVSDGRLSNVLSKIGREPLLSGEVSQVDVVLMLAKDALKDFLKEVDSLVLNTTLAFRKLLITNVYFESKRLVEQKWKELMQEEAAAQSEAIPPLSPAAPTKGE
# G-protein coupled receptor 183, sequence (P32249 whole entry): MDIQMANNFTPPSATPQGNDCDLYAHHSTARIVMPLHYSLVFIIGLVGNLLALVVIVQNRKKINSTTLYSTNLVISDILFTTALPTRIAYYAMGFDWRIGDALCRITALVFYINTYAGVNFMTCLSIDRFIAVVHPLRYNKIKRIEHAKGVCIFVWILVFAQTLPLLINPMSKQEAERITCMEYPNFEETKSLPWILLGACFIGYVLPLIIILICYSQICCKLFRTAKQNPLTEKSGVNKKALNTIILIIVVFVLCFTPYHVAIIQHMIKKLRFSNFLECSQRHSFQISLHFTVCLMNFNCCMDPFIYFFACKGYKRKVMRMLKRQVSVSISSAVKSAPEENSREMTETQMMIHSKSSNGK
smiles,measurement,setting,value
O=C(/C=C/c1ccc(Br)cc1)N1CCN(Cc2ccc(Cl)cc2)CC1,IC50,[1],0.00103 µM (active)
CCCn1c(SCC(=O)Nc2ccc3c(c2)OCO3)nc2c1c(=O)n(C)c(=O)n2C,AC50,[2],> 30 µM (inactive)
Cc1[nH]n(-c2ccccc2)c(=O)c1C(C[N+](=O)[O-])c1ccc(Br)cc1 (stereo not given),IC50,[3],> 20 µM (inactive)
same,AC50,[4],7.85 µM (active)
same,AC50,[5],7.55 µM (active)
same,IC50,[6],4.17 µM (active)
same,EC50,[7],5.73 µM (active)
C=C(Cl)COc1ccc2c(CCC)cc(=O)oc2c1,CC50,[8],> 40 µM (active)
Cc1noc(C)c1CSCC(=O)OCC(=O)Nc1sccc1C#N,IC50,[9],< 77 µM (not active)
same,IC50,[10],15.8 µM (active)
O=C(NCCN1CCC2(CC1)C(=O)NCN2Cc1cccc2ccccc12)c1ccc2ccccc2c1,IC50,[11],1.05 µM (active)
same,IC50,[12],0.16 µM (active)
O=C(Cc1ccc(Br)cc1)N1CCN(Cc2ccc(Cl)cc2)CC1,IC50,[1],> 1 µM (inactive)
c1ccc(-c2nc(N3CCCCCC3)c3ccccc3n2)cc1,IC50,[13],> 80 µM (inactive)
same,IC50,[14],72.2 µM (inactive)
CCc1nc(OCc2ccco2)c2sc3nc4c(cc3c2n1)COC(C)(C)C4,IC50,[15],> 100 µM (active)
same,IC50,[16],> 100 µM (active)
same,CC50,[8],> 40 µM (active)
CC(C)CCN1C(=O)c2ccccc2C1c1nnnn1-c1ccc2c(c1)OCCO2 (stereo not given),AC50,[2],> 30 µM (inactive)
COC(=O)C1=C(C)N(Cc2ccccc2C(F)(F)F)C(NCc2ccc(C(F)(F)F)cc2)=NC1c1ccc(Cl)cc1 (stereo not given),IC50,[17],> 96.6 µM (inactive)
O=C(O)c1ccccc1NS(=O)(=O)c1ccccc1C(F)(F)F,IC50,[16],> 100 µM (active)
O=C(NCCN1CCC2(CC1)C(=O)NCN2Cc1cccnc1)c1ccc2ccccc2c1Br,IC50,[11],20 µM (active)
same,IC50,[12],1.24 µM (active)
c1ccc(-c2cc(NCCCN3CCOCC3)c3ccccc3n2)cc1,IC50,[13],12.6 µM (active)
same,IC50,[14],7.68 µM (active)
